{"source": "patent US20260258032A1", "about": "“TYROSINE KINASE 2 INHIBITORS AND USES THEREOF” (BIOGEN MA INC., priority 2022, published 2026)", "key": {"JH2 domain of human Tyk2": {"molecular_target": "T1, JH2 domain of human Tyk2 (Homo sapiens, UniProt P29597)", "T1 construct": "10×His-tagged TYK2 JH2 domain (amino acid 575-876)", "T1 sequence (P29597 575-876)": "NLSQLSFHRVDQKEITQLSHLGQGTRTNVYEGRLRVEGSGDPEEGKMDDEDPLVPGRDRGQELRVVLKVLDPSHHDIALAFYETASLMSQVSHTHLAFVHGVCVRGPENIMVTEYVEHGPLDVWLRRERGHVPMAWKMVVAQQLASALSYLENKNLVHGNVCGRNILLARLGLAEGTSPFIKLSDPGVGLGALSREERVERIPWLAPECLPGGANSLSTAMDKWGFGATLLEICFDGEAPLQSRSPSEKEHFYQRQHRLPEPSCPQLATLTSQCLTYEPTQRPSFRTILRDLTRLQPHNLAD", "experiment": "JH2 biochemical assay (TR-FRET probe displacement)", "type": "binding", "summary_of_the_method": "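A probe-displacement TR-FRET readout: compounds, tested in 3-fold, 10-point dilutions starting at […], compete with 2 nM tracer for 2 nM His-tagged JH2 (residues 575-876) detected by 0.1 nM Tb-anti-His over 60 min. IC50 comes from 4-parameter fits of normalized 520/495 nm ratios.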"}, "[1]": {"system": "Tyk2 kinase activity on STAT4", "experiment": "pSTAT4 cell assay (MSD, NK92 cells)", "type": "cell-based", "conditions": "compounds 1 hr", "summary_of_the_method": "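IC50 values come from 4-parameter logistic fits of normalized percent activity. Phospho-STAT was read by MSD (anti-STAT4 antibodies) in NK92 lysates after a 15 min stimulation with 30 ng/mL IL2. The serum-starved cells had been given compound for 1 h (10 points, four-fold, top 10 μM).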"}, "[2]": {"conditions": "TR-FRET probe displacement, JH2 domain of human Tyk2"}}, "note": "Where a name gives a salt, the structure may show the parent alone.", "data": [{"smiles": "CC(=O)Nc1cc2c(cn1)C1(CC1)CN2c1cc(C)nc(C2CC2C)n1", "note": "(centres unmarked) [Example 123, N-(1′-(6-methyl-2-(2-methylcyclopropyl)pyrimidin-4-yl)-1′,2′-dihydrospiro[cyclopropane-1,3′-pyrrolo[3,2-c]pyridin]-6′-yl)acetamide]", "values": [{"measurement": "IC50", "setting": "JH2 domain of human Tyk2; JH2 biochemical assay", "value": "≤ 10", "unit": "nM"}, {"measurement": "IC50", "setting": "[1]; stimulated 15 minutes", "value": "100 to 1000", "unit": "nM"}]}, {"smiles": "CC(=O)Nc1cc2c(cn1)C1(CC1)CN2c1cc(C)nc(OCCF)n1", "note": "[Example 288, N-(1′-(2-(2-fluoroethoxy)-6-methylpyrimidin-4-yl)-1′,2′-dihydrospiro[cyclopropane-1,3′-pyrrolo[3,2-c]pyridin]-6′-yl)acetamide]", "values": [{"measurement": "IC50", "setting": "JH2 domain of human Tyk2; JH2 biochemical assay", "value": "≤ 10", "unit": "nM"}, {"measurement": "IC50", "setting": "[1]; stimulated 15 minutes", "value": "100 to 1000", "unit": "nM"}]}, {"smiles": "CC(=O)Nc1cc2c(cn1)C1(CC1)CN2c1cc(C)nc(CCS(C)(=O)=O)n1", "note": "[Example 319, N-(1′-(6-methyl-2-(2-(methylsulfonyl)ethyl)pyrimidin-4-yl)-1′,2′-dihydrospiro[cyclopropane-1,3′-pyrrolo[3,2-c]pyridin]-6′-yl)acetamide]", "values": [{"measurement": "IC50", "setting": "JH2 domain of human Tyk2; JH2 biochemical assay", "value": "10 to 100", "unit": "nM"}, {"measurement": "IC50", "setting": "[1]; stimulated 15 minutes", "value": "≥ 1000", "unit": "nM"}]}, {"smiles": "COCC1CC(Oc2nc(C)cc(N3CC4(CC4)c4cnc(NC(C)=O)cc43)n2)C1", "note": "(centres unmarked) [Example 376, N-(1′-(2-(3-(methoxymethyl)cyclobutoxy)-6-methylpyrimidin-4-yl)-1′,2′-dihydrospiro[cyclopropane-1,3′-pyrrolo[3,2-c]pyridin]-6′-yl)acetamide]", "values": [{"measurement": "IC50", "setting": "JH2 domain of human Tyk2; [2]", "value": "100 to 1000", "unit": "nM"}, {"measurement": "IC50", "setting": "[1]; then stimulated 15 minutes", "value": "≥ 1000", "unit": "nM"}]}, {"smiles": "CC(=O)Nc1cc2c(cn1)C1(CC1)CN2c1cc(-c2cnn(CC3CC3)c2)nc(C(C)(F)F)n1", "note": "[Example 389, N-(1′-(6-(1-(cyclopropylmethyl)-1H-pyrazol-4-yl)-2-(1,1-difluoroethyl)pyrimidin-4-yl)-1′,2′-dihydrospiro[cyclopropane-1,3′-pyrrolo[3,2-c]pyridin]-6′-yl)acetamide]", "values": [{"measurement": "IC50", "setting": "JH2 domain of human Tyk2; [2]", "value": "≤ 10", "unit": "nM"}, {"measurement": "IC50", "setting": "[1]; then stimulated 15 minutes", "value": "≤ 10", "unit": "nM"}]}, {"smiles": "CC(=O)Nc1cc2c(cn1)C1(CC1)CN2c1cc(C)cc(OC2CC(O)C2)n1", "note": "(centres unmarked) [Example 342, N-(1′-(6-(3-hydroxycyclobutoxy)-4-methylpyridin-2-yl)-1′,2′-dihydrospiro[cyclopropane-1,3′-pyrrolo[3,2-c]pyridin]-6′-yl)acetamide]", "values": [{"measurement": "IC50", "setting": "JH2 domain of human Tyk2; JH2 biochemical assay", "value": "100 to 1000", "unit": "nM"}, {"measurement": "IC50", "setting": "[1]; stimulated 15 minutes", "value": "≥ 1000", "unit": "nM"}]}, {"smiles": "CC(=O)Nc1cc2c(cn1)C1(CC1)CN2c1cc([C@H]2C[C@@H](C#N)C2)nc(C(C)(F)F)n1", "note": "[Example 74, N-(1′-(6-((1s,3s)-3-cyanocyclobutyl)-2-(1,1-difluoroethyl)pyrimidin-4-yl)-1′,2′-dihydrospiro[cyclopropane-1,3′-pyrrolo[3,2-c]pyridin]-6′-yl)acetamide or N-(1′-(6-((1r,3r)-3-cyanocyclobutyl)-2-(1,1-difluoroethyl)pyrimidin-4-yl)-1′,2′-dihydrospiro[cyclopropane-1,3′-pyrrolo[3,2-c]pyridin]-6′-yl)acetamide]", "values": [{"measurement": "IC50", "setting": "JH2 domain of human Tyk2; JH2 biochemical assay", "value": "≤ 10", "unit": "nM"}, {"measurement": "IC50", "setting": "[1]; stimulated 15 minutes", "value": "10 to 100", "unit": "nM"}]}, {"smiles": "CC(=O)Nc1cc2c(cn1)C1(CC1)CN2c1cc(Oc2cnn(C)c2)nc(C(C)(F)F)n1", "note": "[Example 145, N-(1′-(2-(1,1-difluoroethyl)-6-((1-methyl-1H-pyrazol-4-yl)oxy)pyrimidin-4-yl)-1′,2′-dihydrospiro[cyclopropane-1,3′-pyrrolo[3,2-c]pyridin]-6′-yl)acetamide trifluoroacetate]", "values": [{"measurement": "IC50", "setting": "JH2 domain of human Tyk2; JH2 biochemical assay", "value": "10 to 100", "unit": "nM"}, {"measurement": "IC50", "setting": "[1]; stimulated 15 minutes", "value": "100 to 1000", "unit": "nM"}]}, {"smiles": "CCO/C=C\\c1cc(N2CC3(CC3)c3cnc(NC(C)=O)cc32)nc(C(C)(F)F)n1", "note": "[Example 329, (Z)-N-(1′-(2-(1,1-difluoroethyl)-6-(2-ethoxyvinyl)pyrimidin-4-yl)-1′,2′-dihydrospiro[cyclopropane-1,3′-pyrrolo[3,2-c]pyridin]-6′-yl)acetamide]", "values": [{"measurement": "IC50", "setting": "JH2 domain of human Tyk2; JH2 biochemical assay", "value": "≤ 10", "unit": "nM"}, {"measurement": "IC50", "setting": "[1]; stimulated 15 minutes", "value": "10 to 100", "unit": "nM"}]}, {"smiles": "COCC(C)Nc1cc(N2CC3(CC3)c3cnc(NC(C)=O)cc32)nc(C(C)(F)F)n1", "note": "(centres unmarked) [Example 178, N-(1′-(2-(1,1-difluoroethyl)-6-((1-methoxypropan-2-yl)amino)pyrimidin-4-yl)-1′,2′-dihydrospiro[cyclopropane-1,3′-pyrrolo[3,2-c]pyridin]-6′-yl)acetamide trifluoroacetate]", "values": [{"measurement": "IC50", "setting": "JH2 domain of human Tyk2; JH2 biochemical assay", "value": "≤ 10", "unit": "nM"}, {"measurement": "IC50", "setting": "[1]; stimulated 15 minutes", "value": "10 to 100", "unit": "nM"}]}]}
